3 compounds from the supplement of paper PMC12076712 can be followed below.

Assay in all cases: pIC50, kinobeads binding competition
One assay addresses ACVR2B (UniProt Q13705). The gist of the method:
(§1)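 Fold changes relative to vehicle, from biological duplicates, were fitted with logistic dose-response models in the R drc package to give pIC50. These fold changes came from TMT10 LC-MS/MS quantification of digested Kinobeads-bound proteins. Compound was applied at nine concentrations (top 30 μM) either to live Jurkat cells in 1:4 steps for 60 min at 37 °C before lysis, or to Jurkat lysate or a 1:1:1:1 HEK293/K-562/HepG2/placenta lysate mix in 1:5 steps for 60 min at 4 °C.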

The next assay addresses T1, DYRK2 (UniProt Q92630).
T1 sequence (whole entry): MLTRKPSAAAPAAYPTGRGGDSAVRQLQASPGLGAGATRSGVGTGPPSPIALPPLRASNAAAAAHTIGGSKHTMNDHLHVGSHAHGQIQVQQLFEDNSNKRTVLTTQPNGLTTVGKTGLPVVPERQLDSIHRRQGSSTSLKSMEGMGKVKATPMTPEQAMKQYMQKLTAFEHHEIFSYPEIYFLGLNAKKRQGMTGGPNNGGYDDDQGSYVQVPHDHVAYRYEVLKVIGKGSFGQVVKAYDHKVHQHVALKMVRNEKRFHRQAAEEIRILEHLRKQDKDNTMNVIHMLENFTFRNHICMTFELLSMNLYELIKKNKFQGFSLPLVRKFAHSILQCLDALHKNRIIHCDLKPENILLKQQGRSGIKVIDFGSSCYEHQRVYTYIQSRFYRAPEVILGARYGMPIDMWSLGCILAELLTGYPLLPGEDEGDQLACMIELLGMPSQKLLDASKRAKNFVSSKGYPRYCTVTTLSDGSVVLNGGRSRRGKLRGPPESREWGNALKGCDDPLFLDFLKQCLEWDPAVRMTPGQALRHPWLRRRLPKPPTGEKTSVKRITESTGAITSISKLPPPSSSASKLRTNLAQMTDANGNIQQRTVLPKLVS
In outline: as §1

In a further assay the target is EGFR (UniProt P00533). The conditions noted are these: cell material: Lysate mix. The gist of the method: as §1
The target of the next assay is T2, EPHA3 (UniProt P29320).
T2 sequence (whole entry): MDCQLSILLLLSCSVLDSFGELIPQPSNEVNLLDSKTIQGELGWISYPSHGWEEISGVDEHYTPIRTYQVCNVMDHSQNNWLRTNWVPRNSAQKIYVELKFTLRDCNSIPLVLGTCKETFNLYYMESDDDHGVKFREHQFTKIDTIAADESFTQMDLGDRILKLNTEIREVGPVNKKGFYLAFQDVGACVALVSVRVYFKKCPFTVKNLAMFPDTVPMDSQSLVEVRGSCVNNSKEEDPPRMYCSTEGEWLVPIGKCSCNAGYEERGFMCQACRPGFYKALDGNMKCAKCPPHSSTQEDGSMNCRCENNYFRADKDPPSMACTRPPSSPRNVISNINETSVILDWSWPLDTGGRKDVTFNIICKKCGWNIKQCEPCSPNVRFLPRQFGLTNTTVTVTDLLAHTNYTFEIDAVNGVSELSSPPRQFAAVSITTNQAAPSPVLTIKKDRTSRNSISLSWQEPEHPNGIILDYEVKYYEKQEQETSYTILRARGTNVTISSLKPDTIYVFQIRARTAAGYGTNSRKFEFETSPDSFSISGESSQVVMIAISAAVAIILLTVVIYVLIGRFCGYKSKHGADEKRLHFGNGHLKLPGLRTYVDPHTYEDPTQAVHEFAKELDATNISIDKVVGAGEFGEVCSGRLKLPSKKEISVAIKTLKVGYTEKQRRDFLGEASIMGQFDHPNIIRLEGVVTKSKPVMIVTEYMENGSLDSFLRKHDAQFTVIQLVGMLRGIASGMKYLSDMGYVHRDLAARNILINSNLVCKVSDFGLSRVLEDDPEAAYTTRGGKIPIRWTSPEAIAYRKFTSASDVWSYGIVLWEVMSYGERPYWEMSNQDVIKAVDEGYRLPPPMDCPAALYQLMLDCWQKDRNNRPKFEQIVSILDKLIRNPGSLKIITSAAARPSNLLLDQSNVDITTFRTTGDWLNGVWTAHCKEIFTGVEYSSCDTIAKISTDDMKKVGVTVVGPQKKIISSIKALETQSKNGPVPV
The gist of the method:
as §1

In another assay the target is HIPK2 (UniProt Q9H2X6). The gist of the method: as §1
In a further assay the target is Jak2 (UniProt O60674). In outline:
as §1

The target of another assay is LRRK2 (UniProt Q5S007). Conditions: cell material: Lysate mix. In outline:
as §1

Another assay addresses MAST4 (UniProt O15021). In outline: as §1
The next assay has as its target PIM2 (UniProt Q9P1W9). In outline:
as §1

The next assay has as its target SRC (UniProt P12931). The gist of the method: as §1
The target of the next assay is STK33 (UniProt Q9BYT3). In outline: as §1
The next assay has as its target TYK2 (UniProt P29597). The gist of the method: as §1
Another assay addresses UniProt P49841. In outline:
as §1

Another assay addresses UniProt Q05397. In outline: as §1
In another assay the target is UniProt Q9BQI3. In outline:
as §1

The next assay concerns the target UniProt Q9Y2K2. In outline: as §1

EGFR, sequence (P00533 whole entry): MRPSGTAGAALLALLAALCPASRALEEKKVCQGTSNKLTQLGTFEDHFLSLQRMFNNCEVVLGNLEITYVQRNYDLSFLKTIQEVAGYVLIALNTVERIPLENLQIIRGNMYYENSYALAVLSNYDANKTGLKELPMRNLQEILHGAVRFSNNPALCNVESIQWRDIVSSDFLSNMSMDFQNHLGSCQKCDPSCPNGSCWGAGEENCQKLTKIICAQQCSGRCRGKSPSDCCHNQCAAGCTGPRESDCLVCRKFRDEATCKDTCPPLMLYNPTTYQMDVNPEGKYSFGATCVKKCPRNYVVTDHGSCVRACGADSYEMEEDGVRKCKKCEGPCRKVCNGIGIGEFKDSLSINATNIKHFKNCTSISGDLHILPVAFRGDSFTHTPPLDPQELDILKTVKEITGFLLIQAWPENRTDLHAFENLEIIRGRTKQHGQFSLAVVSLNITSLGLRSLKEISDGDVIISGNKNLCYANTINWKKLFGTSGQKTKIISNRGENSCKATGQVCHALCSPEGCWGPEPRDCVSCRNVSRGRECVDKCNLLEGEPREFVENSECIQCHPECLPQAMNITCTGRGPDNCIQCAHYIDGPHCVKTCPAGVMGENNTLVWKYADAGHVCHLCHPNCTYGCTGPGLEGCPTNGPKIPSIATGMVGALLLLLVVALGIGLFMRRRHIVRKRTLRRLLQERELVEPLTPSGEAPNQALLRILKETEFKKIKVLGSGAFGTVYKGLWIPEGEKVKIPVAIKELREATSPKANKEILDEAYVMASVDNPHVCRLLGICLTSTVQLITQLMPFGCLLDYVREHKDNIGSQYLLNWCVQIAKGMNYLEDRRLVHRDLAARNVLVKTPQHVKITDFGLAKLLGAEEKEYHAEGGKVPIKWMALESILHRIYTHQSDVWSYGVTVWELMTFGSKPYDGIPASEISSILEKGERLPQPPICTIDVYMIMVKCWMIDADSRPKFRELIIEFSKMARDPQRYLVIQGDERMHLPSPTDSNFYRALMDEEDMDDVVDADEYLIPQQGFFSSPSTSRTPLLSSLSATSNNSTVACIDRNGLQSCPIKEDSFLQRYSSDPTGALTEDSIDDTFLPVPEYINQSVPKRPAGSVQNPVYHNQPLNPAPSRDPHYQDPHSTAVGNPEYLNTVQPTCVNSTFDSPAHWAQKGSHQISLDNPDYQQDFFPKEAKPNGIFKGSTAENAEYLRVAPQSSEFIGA
UniProt Q05397, sequence (Q05397 whole entry, looked up): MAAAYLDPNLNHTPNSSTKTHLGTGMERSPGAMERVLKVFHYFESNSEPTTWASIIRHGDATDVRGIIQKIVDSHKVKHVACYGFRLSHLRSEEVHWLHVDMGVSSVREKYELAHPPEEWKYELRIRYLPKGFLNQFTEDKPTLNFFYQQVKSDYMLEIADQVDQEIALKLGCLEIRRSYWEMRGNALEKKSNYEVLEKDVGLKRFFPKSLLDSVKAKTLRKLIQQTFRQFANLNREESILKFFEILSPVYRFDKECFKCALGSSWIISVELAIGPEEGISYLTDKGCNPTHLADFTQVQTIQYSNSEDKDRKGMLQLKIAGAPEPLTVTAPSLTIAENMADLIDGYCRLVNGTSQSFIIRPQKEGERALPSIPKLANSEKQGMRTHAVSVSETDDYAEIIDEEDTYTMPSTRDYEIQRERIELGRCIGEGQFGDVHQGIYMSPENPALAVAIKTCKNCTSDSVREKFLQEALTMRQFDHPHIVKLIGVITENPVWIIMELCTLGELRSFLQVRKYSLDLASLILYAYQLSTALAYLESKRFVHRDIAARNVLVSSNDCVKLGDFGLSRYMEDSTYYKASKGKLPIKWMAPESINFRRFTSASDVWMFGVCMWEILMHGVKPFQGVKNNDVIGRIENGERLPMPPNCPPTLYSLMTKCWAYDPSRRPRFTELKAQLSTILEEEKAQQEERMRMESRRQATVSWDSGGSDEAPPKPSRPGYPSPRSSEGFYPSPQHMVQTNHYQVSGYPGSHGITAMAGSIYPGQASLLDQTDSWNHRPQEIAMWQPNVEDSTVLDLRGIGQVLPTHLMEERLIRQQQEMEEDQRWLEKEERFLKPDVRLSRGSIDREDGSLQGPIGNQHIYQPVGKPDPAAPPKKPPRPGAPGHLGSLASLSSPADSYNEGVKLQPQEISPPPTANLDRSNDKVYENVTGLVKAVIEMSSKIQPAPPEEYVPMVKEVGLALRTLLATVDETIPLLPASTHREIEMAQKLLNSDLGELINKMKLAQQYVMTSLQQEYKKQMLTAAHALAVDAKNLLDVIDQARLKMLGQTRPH
MAST4, sequence (O15021 whole entry): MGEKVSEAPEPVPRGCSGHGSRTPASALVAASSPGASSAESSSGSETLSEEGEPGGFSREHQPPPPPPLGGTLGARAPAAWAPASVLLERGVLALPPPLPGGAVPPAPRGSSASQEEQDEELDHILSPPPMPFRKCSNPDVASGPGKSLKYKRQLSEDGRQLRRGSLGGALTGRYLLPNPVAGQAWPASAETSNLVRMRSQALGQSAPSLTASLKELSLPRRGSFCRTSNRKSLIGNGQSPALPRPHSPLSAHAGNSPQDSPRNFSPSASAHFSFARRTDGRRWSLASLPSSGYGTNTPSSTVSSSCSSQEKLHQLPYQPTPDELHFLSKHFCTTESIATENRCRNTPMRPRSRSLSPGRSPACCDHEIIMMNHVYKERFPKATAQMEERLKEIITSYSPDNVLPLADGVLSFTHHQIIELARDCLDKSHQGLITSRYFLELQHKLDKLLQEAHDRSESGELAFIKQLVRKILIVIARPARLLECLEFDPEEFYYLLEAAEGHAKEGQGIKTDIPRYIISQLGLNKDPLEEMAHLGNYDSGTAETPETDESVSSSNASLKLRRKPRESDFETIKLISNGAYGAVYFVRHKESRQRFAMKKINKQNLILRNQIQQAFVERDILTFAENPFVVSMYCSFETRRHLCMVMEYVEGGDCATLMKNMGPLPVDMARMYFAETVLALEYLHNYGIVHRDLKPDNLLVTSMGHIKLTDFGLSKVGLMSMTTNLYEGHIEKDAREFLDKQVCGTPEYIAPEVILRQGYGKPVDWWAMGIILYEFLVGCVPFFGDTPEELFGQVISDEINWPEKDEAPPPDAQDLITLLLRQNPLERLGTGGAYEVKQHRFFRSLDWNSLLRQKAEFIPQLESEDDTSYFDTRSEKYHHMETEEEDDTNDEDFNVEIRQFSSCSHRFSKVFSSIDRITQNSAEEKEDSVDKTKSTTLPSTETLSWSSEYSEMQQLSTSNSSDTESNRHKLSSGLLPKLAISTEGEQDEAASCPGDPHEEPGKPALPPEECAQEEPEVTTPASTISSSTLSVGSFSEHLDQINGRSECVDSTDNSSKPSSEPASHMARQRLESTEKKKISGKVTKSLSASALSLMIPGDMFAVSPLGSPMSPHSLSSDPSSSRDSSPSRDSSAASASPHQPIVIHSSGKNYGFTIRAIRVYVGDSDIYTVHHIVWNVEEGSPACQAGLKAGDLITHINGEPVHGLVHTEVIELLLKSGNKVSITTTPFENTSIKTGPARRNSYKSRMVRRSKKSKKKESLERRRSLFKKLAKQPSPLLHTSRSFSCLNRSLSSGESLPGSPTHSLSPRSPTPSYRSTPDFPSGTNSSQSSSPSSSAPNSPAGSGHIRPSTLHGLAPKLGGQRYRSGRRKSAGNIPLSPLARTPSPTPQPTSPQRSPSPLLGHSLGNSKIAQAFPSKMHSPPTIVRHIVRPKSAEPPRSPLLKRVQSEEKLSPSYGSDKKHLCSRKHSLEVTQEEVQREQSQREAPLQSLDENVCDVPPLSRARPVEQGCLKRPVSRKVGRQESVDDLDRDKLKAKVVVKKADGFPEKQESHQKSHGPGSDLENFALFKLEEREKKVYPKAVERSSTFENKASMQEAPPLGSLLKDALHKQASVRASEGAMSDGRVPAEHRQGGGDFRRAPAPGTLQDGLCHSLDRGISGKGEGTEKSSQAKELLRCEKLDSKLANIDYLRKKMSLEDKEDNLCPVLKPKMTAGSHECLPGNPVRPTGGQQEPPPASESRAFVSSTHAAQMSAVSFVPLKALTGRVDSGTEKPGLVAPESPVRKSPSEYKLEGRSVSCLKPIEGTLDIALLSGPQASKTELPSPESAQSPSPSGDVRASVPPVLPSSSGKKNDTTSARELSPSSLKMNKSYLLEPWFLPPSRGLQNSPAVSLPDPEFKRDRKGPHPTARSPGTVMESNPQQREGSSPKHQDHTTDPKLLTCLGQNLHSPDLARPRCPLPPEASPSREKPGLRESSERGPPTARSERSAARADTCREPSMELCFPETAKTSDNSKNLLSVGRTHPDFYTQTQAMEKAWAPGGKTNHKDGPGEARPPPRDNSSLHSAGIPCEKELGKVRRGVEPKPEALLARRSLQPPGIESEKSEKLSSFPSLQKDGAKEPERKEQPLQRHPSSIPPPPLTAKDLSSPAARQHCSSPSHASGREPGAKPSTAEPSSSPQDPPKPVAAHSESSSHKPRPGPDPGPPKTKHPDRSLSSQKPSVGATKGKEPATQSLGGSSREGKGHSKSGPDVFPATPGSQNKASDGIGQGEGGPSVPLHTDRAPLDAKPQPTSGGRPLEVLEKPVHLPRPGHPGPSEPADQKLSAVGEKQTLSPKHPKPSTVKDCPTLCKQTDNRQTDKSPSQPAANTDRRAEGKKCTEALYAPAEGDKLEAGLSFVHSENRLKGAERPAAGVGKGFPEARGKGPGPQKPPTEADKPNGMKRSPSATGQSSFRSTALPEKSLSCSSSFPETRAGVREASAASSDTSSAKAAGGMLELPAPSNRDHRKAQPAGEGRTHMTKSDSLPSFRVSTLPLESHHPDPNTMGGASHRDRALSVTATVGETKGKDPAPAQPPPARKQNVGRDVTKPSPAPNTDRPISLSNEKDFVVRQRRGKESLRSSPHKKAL

On to `C#CCNC(=O)c1cc(Nc2cc(C3CC3)[nH]n2)nc(N2CCN(Cc3ccc(S(=O)(=O)F)cc3)CC2)n1`, for which the pIC50 on ACVR2B (cell material: Jurkat lysate) was below 4.52; on ACVR2B (cell material: Lysate mix), below 4.52; on DYRK2 (cell material: Jurkat cells), below 4.52; on DYRK2 (cell material: Jurkat lysate) it was below 4.52; on EGFR, 5.4; at EPHA3 (cell material: Jurkat lysate), below 4.52. The pIC50 at EPHA3 (cell material: Lysate mix) is below 4.52; on HIPK2 (cell material: Jurkat cells), 6.12; on HIPK2 (cell material: Jurkat lysate), 5.54; at HIPK2 (cell material: Lysate mix), 5.92; at Jak2 (cell material: Jurkat lysate) it was below 4.52; at Jak2 (cell material: Lysate mix) it was 4.9. Also, the negative logarithm of the IC50 (pIC50) on LRRK2 was 5.64; on MAST4 (cell material: Jurkat lysate), 6.46; at MAST4 (cell material: Lysate mix), 7; on PIM2 (cell material: Jurkat lysate), below 4.52; at PIM2 (cell material: Lysate mix) it was below 4.52; at SRC (cell material: Jurkat cells), 6.41. In addition, the pIC50 at SRC (cell material: Jurkat lysate) was 5.68; on SRC (cell material: Lysate mix), 6.24; on STK33 (cell material: Jurkat cells) it was 6.2; at STK33 (cell material: Jurkat lysate), 5.12; at STK33 (cell material: Lysate mix), 5.82; on TYK2 (cell material: Jurkat cells), below 4.52. Also, the pIC50 is below 4.52 at TYK2 (cell material: Jurkat lysate); below 4.52 on TYK2 (cell material: Lysate mix); 5.26 at UniProt P49841 (cell material: Jurkat cells); below 4.52 on UniProt P49841 (cell material: Jurkat lysate); below 4.52 at UniProt P49841 (cell material: Lysate mix); below 4.52 at UniProt Q05397 (cell material: Jurkat cells). The pIC50 on UniProt Q05397 (cell material: Jurkat lysate) is below 4.52; at UniProt Q05397 (cell material: Lysate mix), below 4.52; on UniProt Q9BQI3 (cell material: Jurkat cells) it was 5.34; at UniProt Q9BQI3 (cell material: Jurkat lysate), below 4.52; on UniProt Q9Y2K2 (cell material: Jurkat lysate), below 4.52; at UniProt Q9Y2K2 (cell material: Lysate mix) it was below 4.52.

In the case of `C#CCNC(=O)c1cc(Nc2cc(C)[nH]n2)nc(N2CCN(Cc3ccc(S(=O)(=O)F)cc3)CC2)n1`, the pIC50 is below 4.52 at ACVR2B (cell material: Lysate mix); below 4.52 on DYRK2 (cell material: Lysate mix); 5.56 at EGFR; below 4.52 at EPHA3 (cell material: Lysate mix); 4.98 at HIPK2 (cell material: Lysate mix); 4.93 at Jak2 (cell material: Lysate mix). In addition, the pIC50 at LRRK2 was 5.27; on MAST4 (cell material: Lysate mix), 6.06; at PIM2 (cell material: Lysate mix), below 4.52; on SRC (cell material: Lysate mix), 5.89; on STK33 (cell material: Lysate mix), below 4.52; at TYK2 (cell material: Lysate mix) it was below 4.52. Moreover, the negative logarithm of the IC50 (pIC50) on UniProt P49841 (cell material: Lysate mix), at UniProt Q05397 (cell material: Lysate mix), at UniProt Q9BQI3 (cell material: Lysate mix) and at UniProt Q9Y2K2 (cell material: Lysate mix) was below 4.52 throughout.

With `CCNC(=O)c1cc(Nc2cc(C3CC3)[nH]n2)nc(N2CCN(Cc3ccc(S(=O)(=O)F)cc3)CC2)n1`, the pIC50 at ACVR2B (cell material: Lysate mix) is below 4.52; on DYRK2 (cell material: Lysate mix) it was 4.65; on EGFR, 5.3; at EPHA3 (cell material: Lysate mix) it was below 4.52; at HIPK2 (cell material: Lysate mix), 5.72; at Jak2 (cell material: Lysate mix), 4.73. For the same compound, the pIC50 was 5.46 at LRRK2; 6.37 on MAST4 (cell material: Lysate mix); below 4.52 at PIM2 (cell material: Lysate mix); 6.14 at SRC (cell material: Lysate mix); 5.67 at STK33 (cell material: Lysate mix); below 4.52 at TYK2 (cell material: Lysate mix). Besides, the pIC50 at UniProt P49841 (cell material: Lysate mix) was below 4.52; at UniProt Q05397 (cell material: Lysate mix) it was below 4.52; at UniProt Q9BQI3 (cell material: Lysate mix), 5.06; at UniProt Q9Y2K2 (cell material: Lysate mix) it was below 4.52.

As usually defined, the pIC50 is the negative decadic logarithm of the IC50, by convention in mol/L. Read a high pIC50 as a small IC50.
